Data reported in patent publication US20040003429A1, “Pest control system” (priority 2000, published 2004).
Where two headings read alike, the source gives them in different places.

What was measured:
[1] = system: Drosophila melanogaster (strain OR/R); experiment: survival of flies after insecticide treatment (FIG. 1); format: in vivo; conditions: 16 h after insecticide-treatment
[2] = system: acetylcholinesterase (AchE); conditions: cited from earlier work
[3] = system: tobacco budworm Heliothis virescens; conditions: cited from earlier work
[4] = system: Ceratitis capitata (strain Benakeion); experiment: survival of flies after insecticide treatment (FIG. 1); format: in vivo; conditions: 16 h after insecticide-treatment
[5] = system: adult boll weevil Anthonomus granids Boheman; conditions: cited from earlier work
housefly = conditions: relative to imidacloprid; cited from earlier work
[6] = system: nicotinergic acetylcholine receptor (nAcR); conditions: relative to imidacloprid; cited from earlier work
[7] = system: mixed function oxidase system; conditions: in vitro mixed function oxidase system; cited from earlier work

| SMILES | activity compared to Methamidophos [1] | sensitivity of flies ((%) survival) [1] | AchE inhibition [2] | activity in the tobacco budworm ([3]; acephate compared with methamidophos) | methamidophos observed in budworm larvae ([3]; within 2 hours of a topical acephate application) | activity compared to Methamidophos [4] | sensitivity of flies ((%) survival) [4] | activity in the tobacco budworm ([3]; in vivo) | fold more toxic than acephate [5] [fold] | potency in the housefly (housefly) | decrease of binding affinity to nAcR [6] [fold] | conversion to imidacloprid [7] |
| --- | --- | --- | --- | --- | --- | --- | --- | --- | --- | --- | --- | --- |
| COP(=O)(NC(C)=O)SC (stereo not drawn) [Acephate, O, S dimethyl acetylphosphoramidothicate] | less active | sensitive | not an AchE inhibitor | comparable activity | small amount of methamidophos | less active | sensitive |  |  |  |  |  |
| COP(N)(=O)SC (stereo not drawn) [Methamidophos, O, S-dimethyl phosphoramidothicate] |  | sensitive | potent acetylcholinesterase (AchE) inhibitor |  |  |  | sensitive | comparable activity | 75 |  |  |  |
| CN1CCN(Cc2ccc(Cl)nc2)C1=N[N+](=O)[O-] [N-Me-imidacloprid] |  |  |  |  |  |  |  |  |  | as potent as imidacloprid | 100 | can be converted to imidacloprid |
